Experimental data reported in patent US20240208961A1, “EIF4E INHIBITORS AND USES THEREOF” (PIC Therapeutics, Inc., priority 2022, published 2024).
Several values for one entry are separate records, joined by “and”; a condition that tells them apart may be missing. Equal values may be shown once. Read-outs that look alike come from different tables or passages of the source.

Assay: Pharmacokinetic study of I-11 in female BALB/c mice (Example 4)
Type: in vivo, Balb/c mouse
Description: Pharmacokinetic Study in Female BALB/c Mice: Balb/c mouse, 17-19 g, 8-10 weeks, female, N=27, purchased from JH Laboratory Animal Co. LTD
Fasted overnight and fed at 4 hr post dosing.
Animals dosed with sampling at 0.083, 0.25, 0.5, 1, 2, 4, 8, 24 hr post dose. 8 time points. Semi-serial bleeding for plasma only. The animals were restrained manually at the designated time points. Approx. 110 μL of blood/time point was taken from the animals via facial vein into tubes with K2EDTA. Blood sample was centrifuged at 4° C. (2000 g, 5 min) to obtain plasma within 15 m after sample collection. Put on wet ice, then plasma samples were stored at approximately −70° C. until analysis.
For oral gavage, compound was dosed as a suspension in […] carboxymethyl cellulose (CMC), 0.2% Tween 80 in water. Compound was orally dosed at 50 mg/Kg, at 100 mg/Kg.
For IV dosing, compound was dissolved into a solution of […], […] HS 15 and 90% Saline. Compound was IV dosed at 5 mg/Kg.
Plasma samples were analyzed for I-11 using LC-MS using a calibration curve of known concentrations.
FIG. 1 describes the mean plasma concentration-time profiles of I-11 after single IV dose of 5 mg/kg, PO dose of 50 mg/kg and 100 mg/kg in female Balb/c mice (N=3/time point). • Note: • 1. […] The IV dosing solutions were prepared in 5% DMSO+5% Solutol HS15+90% Saline. The PO dosing solutions were prepared in 1% CMC-Na+0.2% Tween 80 in water. • 3. BQL=Below quantifiable limit of 3.00 ng/mL for I-11 in female Balb/c mouse plasma samples. • 4. PK parameters were estimated by non-compartmental model using WinNonlin 8.2. If the adjusted rsq (linear regression coefficient of the concentration value on the terminal phase) is less than 0.9, T1/2 might not be accurately estimated. • 5. F value was determined by the following equation: • If AUClast/AUCINF>80%:
F=(AUCINF-EX×DOSEIV)/(AUCINF-IV×DOSEEX)[…] • If AUClast/AUCINF<80% or AUCINF not available:
F=([…])/(AUClast-IV×DOSEEX)[…] • 6. NA: Not available.

[1] = IV 5 mg/kg, 24 hr, BQL = below quantifiable limit of 3.00 ng/mL

Plasma concentration Individual (IV 5 mg/kg, 0.083 hr, 5 mg/kg): 9810 ng/mL and 12300 ng/mL
Plasma concentration Individual (IV 5 mg/kg, 0.25 hr, 5 mg/kg): 5200 ng/mL and 5420 ng/mL
Plasma concentration Individual (IV 5 mg/kg, 0.5 hr, 5 mg/kg): 2920 ng/mL and 1730 ng/mL
Plasma concentration Individual (IV 5 mg/kg, 1 hr, 5 mg/kg): 865 ng/mL and 1180 ng/mL and 1810 ng/mL
Plasma concentration Individual (IV 5 mg/kg, 2 hr, 5 mg/kg): 142 ng/mL
Plasma concentration Individual (IV 5 mg/kg, 4 hr, 5 mg/kg): 48.5 ng/mL and 29.8 ng/mL
Plasma concentration Individual (IV 5 mg/kg, 8 hr, 5 mg/kg): 26.1 ng/mL and 15.9 ng/mL
Plasma concentration Individual [1]: BQL
Plasma concentration Mean [1]: BQL
F (PO 50 mg/kg vs IV 5 mg/kg): 50.9%
Plasma concentration Individual (PO 50 mg/kg, 0.083 hr, 50 mg/kg): 288 ng/mL and 220 ng/mL
Plasma concentration Individual (PO 50 mg/kg, 0.25 hr, 50 mg/kg): 1880 ng/mL and 2380 ng/mL and 1030 ng/mL
Plasma concentration Individual (PO 50 mg/kg, 0.5 hr, 50 mg/kg): 6750 ng/mL and 6980 ng/mL
Plasma concentration Individual (PO 50 mg/kg, 1 hr, 50 mg/kg): 5940 ng/mL and 6670 ng/mL
Plasma concentration Individual (PO 50 mg/kg, 2 hr, 50 mg/kg): 7770 ng/mL and 3890 ng/mL
Plasma concentration Individual (PO 50 mg/kg, 4 hr, 50 mg/kg): 1750 ng/mL and 2280 ng/mL
Plasma concentration Individual (PO 50 mg/kg, 8 hr, 50 mg/kg): 249 ng/mL and 325 ng/mL
Plasma concentration Individual (PO 50 mg/kg, 24 hr, 50 mg/kg): 3.85 ng/mL and 64.0 ng/mL and 182 ng/mL
F (PO 100 mg/kg vs IV 5 mg/kg): 60.0%
Plasma concentration Individual (PO 100 mg/kg, 0.083 hr, 100 mg/kg): 318 ng/mL and 232 ng/mL
Plasma concentration Individual (PO 100 mg/kg, 0.25 hr, 100 mg/kg): 2990 ng/mL and 2700 ng/mL
Plasma concentration Individual (PO 100 mg/kg, 1 hr, 100 mg/kg): 6710 ng/mL and 7030 ng/mL
Plasma concentration Individual (PO 100 mg/kg, 2 hr, 100 mg/kg): 14100 ng/mL and 12300 ng/mL
Plasma concentration Individual (PO 100 mg/kg, 8 hr, 100 mg/kg): 444 ng/mL and 503 ng/mL and 953 ng/mL
Plasma concentration Individual (PO 100 mg/kg, 24 hr, 100 mg/kg): 40.6 ng/mL and 57.5 ng/mL and 84.2 ng/mL
clearance (female, BALB/c, mouse, plasma, iv, 5 mg/kg, IV 5 mg/kg): 15.8 mL/min/kg
concentration at 0.083 hr (female, BALB/c, mouse, plasma, iv, 5 mg/kg, IV 5 mg/kg, 0.083 hr, read-out: Plasma concentration Individual): 7980 ng/mL
concentration at 0.083 hr (female, BALB/c, mouse, plasma, iv, 5 mg/kg, IV 5 mg/kg, 0.083 hr, read-out: Plasma concentration Mean): 10000 ng/mL
concentration at 0.25 hr (female, BALB/c, mouse, plasma, iv, 5 mg/kg, IV 5 mg/kg, 0.25 hr, read-out: Plasma concentration Individual): 5600 ng/mL
concentration at 0.25 hr (female, BALB/c, mouse, plasma, iv, 5 mg/kg, IV 5 mg/kg, 0.25 hr, read-out: Plasma concentration Mean): 5410 ng/mL
concentration at 0.5 hr (female, BALB/c, mouse, plasma, iv, 5 mg/kg, IV 5 mg/kg, 0.5 hr, read-out: Plasma concentration Individual): 2710 ng/mL
concentration at 0.5 hr (female, BALB/c, mouse, plasma, iv, 5 mg/kg, IV 5 mg/kg, 0.5 hr, read-out: Plasma concentration Mean): 2450 ng/mL
concentration at 1 hr (female, BALB/c, mouse, plasma, iv, 5 mg/kg, IV 5 mg/kg, 1 hr, read-out: Plasma concentration Mean): 1280 ng/mL
concentration at 2 hr (female, BALB/c, mouse, plasma, iv, 5 mg/kg, IV 5 mg/kg, 2 hr, read-out: Plasma concentration Individual): 135 ng/mL
concentration at 2 hr (female, BALB/c, mouse, plasma, iv, 5 mg/kg, IV 5 mg/kg, 2 hr, read-out: Plasma concentration Mean): 140 ng/mL
concentration at 4 hr (female, BALB/c, mouse, plasma, iv, 5 mg/kg, IV 5 mg/kg, 4 hr, read-out: Plasma concentration Individual): 58.3 ng/mL
concentration at 4 hr (female, BALB/c, mouse, plasma, iv, 5 mg/kg, IV 5 mg/kg, 4 hr, read-out: Plasma concentration Mean): 45.5 ng/mL
concentration at 8 hr (female, BALB/c, mouse, plasma, iv, 5 mg/kg, IV 5 mg/kg, 8 hr, read-out: Plasma concentration Individual): 19 ng/mL
concentration at 8 hr (female, BALB/c, mouse, plasma, iv, 5 mg/kg, IV 5 mg/kg, 8 hr, read-out: Plasma concentration Mean): 20.3 ng/mL
concentration at 0.083 hr (female, BALB/c, mouse, plasma, po, 50 mg/kg, PO 50 mg/kg, 0.083 hr, read-out: Plasma concentration Individual): 263 ng/mL
concentration at 0.083 hr (female, BALB/c, mouse, plasma, po, 50 mg/kg, PO 50 mg/kg, 0.083 hr, read-out: Plasma concentration Mean): 257 ng/mL
SMILES: CC(C)Cc1sc(Nc2ncc(-c3cccs3)cc2C(=O)O)nc1C(C)(C)C [Compound I-11]
abnormal clinical symptoms during in-life study (IV 5 mg/kg, PO 50 and 100 mg/kg single dose): No abnormal clinical symptoms were observed
Plasma concentration Individual (PO 100 mg/kg, 0.5 hr, 100 mg/kg): 4890 ng/mL and 6670 ng/mL and 11900 ng/mL
Plasma concentration Individual (PO 100 mg/kg, 4 hr, 100 mg/kg): 4840 ng/mL and 6930 ng/mL and 12800 ng/mL
